{"source": "patent US7569570B2", "about": "“Thienopyrimidines, process for preparing the same and use thereof” (Takeda Pharmaceutical Company Limited, priority 2002, dated 2009)", "key": {"Rat GnRH Receptor": {"target": "T1, Rat GnRH Receptor (Rattus norvegicus, UniProt P30969)", "T1 construct": "Anterior lobes of the pituitary glands were isolated from forty Wistar rats; from tissue; host or cells: rat (Wistar, male, 8 weeks) anterior pituitary membrane fraction", "T1 sequence (P30969 1-327)": "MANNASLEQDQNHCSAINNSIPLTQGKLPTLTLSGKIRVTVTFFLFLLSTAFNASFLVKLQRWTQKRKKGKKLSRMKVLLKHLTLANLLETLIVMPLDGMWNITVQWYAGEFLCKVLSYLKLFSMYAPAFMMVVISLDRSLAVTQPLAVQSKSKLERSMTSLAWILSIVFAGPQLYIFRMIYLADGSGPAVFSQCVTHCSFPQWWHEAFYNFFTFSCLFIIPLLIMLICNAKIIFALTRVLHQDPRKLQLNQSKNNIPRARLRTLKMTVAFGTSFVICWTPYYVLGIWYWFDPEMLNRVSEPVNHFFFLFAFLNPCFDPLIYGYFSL", "assay": "125I-leuprorelin binding inhibition, rat pituitary anterior lobe membrane fraction", "conditions": "4° C. for 90 minutes, Hill plot", "description": "(§1) (1) Preparation of ^125I-Leuprorelin\n(§2) To a tube containing 10 μl of a 3×10^−4 M aqueous solution of leuprorelin and 10 μl of 0.01 mg/ml lactoperoxidase, 10 μl (37 MBq) of a solution of Na^125I was added. After stirring, 10 μl of 0.001% H2O2 was added, and a reaction was carried out at room temperature for 20 minutes. By adding 700 μl of a 0.05% TFA (trifluoroacetic acid) solution, the reaction was stopped, and the solution was purified by reversed-phase HPLC. The HPLC conditions are shown below. ^125I-leuprorelin was eluted at a retention time of 26 to 27 minutes.\n(2) Preparation of a Pituitary Anterior Lobe Membrane […]\n(§3) When the rat pituitary anterior lobe membrane fraction was used, the reaction was conducted at 4° C. for 90 minutes. […] After the filtration, the radioactivity of ^125I-leuprorelin remaining on the filter paper was measured with a γ-counter.\n(§4) (TB−SB)/(TB−NSB)×100 (SB: radioactivity when the compound is added, TB: maximum binding radioactivity, NSB: non-specific binding radioactivity) was calculated to find the binding inhibition rate (%) of each test substance. […]"}, "Human GnRH Receptor": {"target": "T2, Human GnRH Receptor (Homo sapiens, UniProt P30968)", "T2 construct": "expressed in transfected cells; host or cells: CHO (Chinese hamster ovary) cells", "T2 sequence (P30968 1-328)": "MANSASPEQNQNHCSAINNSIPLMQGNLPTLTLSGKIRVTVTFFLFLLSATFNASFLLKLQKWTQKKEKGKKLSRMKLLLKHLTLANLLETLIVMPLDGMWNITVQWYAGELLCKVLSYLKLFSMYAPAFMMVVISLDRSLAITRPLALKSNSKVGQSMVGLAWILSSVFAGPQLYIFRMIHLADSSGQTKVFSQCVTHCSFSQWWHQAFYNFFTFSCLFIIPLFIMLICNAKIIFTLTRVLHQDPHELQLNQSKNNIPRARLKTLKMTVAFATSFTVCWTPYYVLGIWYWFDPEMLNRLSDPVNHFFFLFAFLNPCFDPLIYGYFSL", "assay": "125I-leuprorelin binding inhibition, membrane fraction of human GnRH receptor-expressing CHO cells", "conditions": "25° C. for 60 minutes, Hill plot", "description": "as §1, §2\n(3) Preparation of a CHO (Chinese Hamster Ovarian) Cell Membrane Fraction Containing Human GnRH Receptor\nHuman GnRH receptor-expressing CHO cells (10^9 cells) were suspended in phosphate-buffered saline supplemented with 5 mM EDTA (PBS-EDTA) and centrifuged at 100×g for 5 minutes. […]\nas §3, §4"}}, "note": "Structures can show the parent of a compound that is named as a salt.", "data": [{"smiles": "CCNC(=O)Nc1ccc(-c2sc3c(c2CN(C)CCOC(C)C)c(=O)n(-c2ccccc2)c(=O)n3Cc2c(F)cccc2F)cc1", "note": "[Example 110, N-[4-(1-(2,6-difluorobenzyl)-[(2-(2-propoxy)ethyl(methyl)amino}methyl]-2,4-dioxo-3 phenyl-1,2,3,4-tetrahydrothieno[2,3-d]pyrimidin-6-yl)phenyl]-N′-ethylurea]", "values": [{"measurement": "IC50", "setting": "Rat GnRH Receptor", "value": 0.2, "unit": "µM"}, {"measurement": "melting point", "value": 224, "unit": "°C"}, {"measurement": "IC50", "setting": "Human GnRH Receptor", "value": "< 0.0001", "unit": "µM"}]}, {"smiles": "CCNC(=O)Nc1ccc(-c2sc3c(c2CN(C)CCOC)c(=O)n(-c2ccccc2)c(=O)n3Cc2c(F)cccc2F)cc1", "note": "[Example 112, N-[4-(1-(2,6-difluorobenzyl)-5-{[(2-methoxyethyl)(methyl)amino]methyl}-2,4-dioxo-3-phenyl-1,2,3,4-tetrahydrothieno[2,3-d]pyrimidin-6-yl)phenyl]-N′-ethylurea 1 hydrochloride]", "values": [{"measurement": "IC50", "setting": "Rat GnRH Receptor", "value": 0.2, "unit": "µM"}, {"measurement": "IC50", "setting": "Human GnRH Receptor", "value": 0.0001, "unit": "µM"}]}]}
